Reference: US12264146B2, “Rho kinase inhibitor, method for preparing same and uses thereof” (BEIJING INCREASE INNOVATIVE DRUG CO., LTD., priority 2018, dated 2025)
Structures can show the parent of a compound that is named as a salt.

What was measured:
[1] = system: subarachnoid hemorrhage in rats; assay: Rat subarachnoid hemorrhage (SAH) model by intravascular puncture, Sugawara bleeding score; type: in vivo; parameters: dose or concentration left out as unconfirmed; conditions: tail vein injection, 2 administrations 4 h apart, scored 24 h after first administration (Sugawara)
Procedure: Rat subarachnoid hemorrhage (SAH) model was built by intravascular puncture. After being weighed, the rats were anesthetized with sodium pentobarbital (50 mg/kg) or chloral hydrate (300 mg/kg) by intraperitoneal injection, then fixed on their back and maintained the animal's body temperature at about 37° C. The rats' neck skin was shaved for surgery, a median incision was made on the neck, and muscle and fascia were separated along the inner edge of stemocleidomastoid muscle to expose the main and bifurcation of right common carotid artery, and expose the external and internal carotid arteries.
The bifurcation of internal carotid artery was gently clamped with ophthalmic forceps, the bifurcation of the internal carotid artery and the external carotid artery was pierced with a 6-gauge syringe needle, the ophthalmic forceps holding the bifurcation of internal carotid artery was slightly loosen, and No. 3 fishing thread was used to perform a puncture at the bleeding point, the ophthalmic forceps on the internal carotid artery was loosen, and the fishing thread was inserted into skull. […] After staying for 15 seconds, the thread for puncture was completely removed, and the skin was sutured after compression to stop the bleeding. 1.6 million units of penicillin potassium (400,000 units/ml, 0.2 ml/rat) was intramuscularly injected to avoid wound infection. For the sham operation group, the thread for puncture was removed when resistance was felt without piercing the bifurcation of the anterior cerebral artery and the middle cerebral artery, while the remaining operation steps were the same as the model group. After the operation, the rats were transferred to a thermal insulation blanket, then transferred to a squirrel cage when they were basically awake, and kept normally.
In this test experimental, 32 groups were set, i.e., Groups 1 to 32, in which Group 1 was a normal control group (healthy rats), Group 2 was a sham operation control group (not modeling by puncture), Group 3 was a model control group (modeling by puncture, administrated with normal saline), Group 4 was a positive control group (modeling by puncture, administrated with fasudil hydrochloride injection), and Groups 5 to 32 were test groups of the compounds of the present application (modeling by puncture, respectively administrated with the compounds of the present application); and there were 8 animals (purchased from SPF (Beijing) Biotechnology Co., Ltd., the certificate number was SYXK (Beijing) 2016-0002) in each group, half of them were female and half of them were male. The animals were subjected to fasting for 12 to 18 hours without prohibition of drinking water before modeling. […] The rats were euthanized 24 h after the first administration, and the brains were taken. According to Sugawara's method (Reference: Sugawara T, Ayer R, Jadhav V, et al. A new grading system evaluating bleeding scale in filament perforation subarachnoid hemorrhage rat model. J Neurosci Methods. 2008, 167(2):327-34), the subarachnoid hemorrhage amounts were scored, and the scoring results were as follows: […]

prostacyclin (PGI2) = assay: Expression of prostacyclin (PGI2) in EA.Hy926 endothelial cells, ELISA kit; type: cell-based; conditions: 24 h; for expression of prostacyclin in endothelial cells: Detection result of test compound at low dose (0.4 μM) / expression of prostacyclin in endothelial cells: Detection result of test compound at medium dose (2 μM) / expression of prostacyclin in endothelial cells: Detection result of test compound at high dose (10 μM): EA.Hy926 cell supernatant
Procedure: (§1) Commercially available cytokine kits were used to detect the effects of the compounds of the present application on vascular endothelium-derived contracting factor endothelin, vascular endothelium-derived relaxing factor endothelial nitric oxide synthase, nitric oxide, and prostacyclin factor. The detection was performed according to the kit instructions. When testing the effect of the compound of the present application on cytokines, a normal control group, a fasudil hydrochloride group, and high-, medium- and low-dose groups of the compounds of the present application were set up for testing. The fasudil hydrochloride used in this test example was purchased from Beijing Sihuan Pharmaceutical Co., Ltd., with the SFDA approval number of H20173349. The EA.Hy926 cells used in this test example were purchased from Suzhou Beina Chuanglian Biotechnology Co., Ltd.
EA.Hy926 cells were taken and inoculated in a 96-well plate at 5×10^4 cells/mL, 100 μL per well, and cultured adherently for 24 hours, then the test compound prepared in DMEM medium was added, and an equal volume of DMEM medium was added in the normal control group, then the cells were cultured at 37° C. for 24 hours, and then the cell supernatant was taken and placed in an EP tube, and centrifuged for 15 min at 3000 r/min and 15° C. The resulting supernatant was transferred to a new EP tube, and then the detection was performed according to the instruction of ELISA kit (purchased from Wuhan Elabscience Biotechnology Co., Ltd., Cat. No. E-EL-0022c), and the detection results were shown in Table 3.

nitric oxide (NO) = assay: Synthesis and secretion of nitric oxide (NO) in EA.Hy926 endothelial cells, NO detection kit; type: cell-based; conditions: EA.Hy926 cell supernatant, 24 h
Procedure: as §1
EA.Hy926 cells were inoculated in a 24-well plate at 5×10^5 cells/mL, 400 μL per well, and cultured adherently for 18 hours, then the supernatant was discarded, the test compound prepared in DMEM medium was added, and an equal volume of DMEM medium was added in the normal control group, then the cells was cultured for 24 h in incubator, and then the cell supernatant was collected and detected according to the instructions of NO detection kit (purchased from Beyotime Institute of Biotechnology, Cat. No. 062617171017), and the detection results were shown in Table 5.

| Structure (SMILES) | Cerebral hemorrhage volume score (x ± s) [1] | expression of prostacyclin in endothelial cells: Detection result of test compound at low dose (0.4 μM) (prostacyclin (PGI2)) [pg/mL] | expression of prostacyclin in endothelial cells: Detection result of test compound at medium dose (2 μM) (prostacyclin (PGI2)) [pg/mL] | expression of prostacyclin in endothelial cells: Detection result of test compound at high dose (10 μM) (prostacyclin (PGI2)) [pg/mL] | nitric oxide secretion in endothelial cells: Detection result of test compound at low dose (0.4 μM) (nitric oxide (NO)) [μm] | nitric oxide secretion in endothelial cells: Detection result of test compound at medium dose (2 μM) (nitric oxide (NO)) [μm] | nitric oxide secretion in endothelial cells: Detection result of test compound at high dose (10 μM) (nitric oxide (NO)) [μm] | effect on the expression of prostacyclin (in words) (prostacyclin (PGI2); low concentration) | effect on the expression of prostacyclin (in words) (prostacyclin (PGI2); medium and high concentrations) |
| --- | --- | --- | --- | --- | --- | --- | --- | --- | --- |
| C[C@@H]1CNCCCN1S(=O)(=O)c1cccc2c(O)ncc(F)c12 [Compound R-YK1604, (R)-4-fluoro-5-((2-methyl-1,4-diazacycloheptan-1-yl)sulfonyl)isoquinolin-1-ol] | 12.58 ± 1.96 | 280.40 ± 9.89 | 279.35 ± 28.69 | 251.44 ± 42.48 | 1.009 ± 0.064 | 0.851 ± 0.032 | 0.829 ± 0.064 | – | – |
| C[C@@H]1CNCCCN1S(=O)(=O)c1cccc2c(O)nccc12 [Compound R-YK1601, (R)-5-((2-methyl-1,4-diazacycloheptan-1-yl)sulfonyl)isoquinolin-1-ol] | 11.75 ± 2.05 | 253.00 ± 5.55 | 253.52 ± 55.60 | 227.01 ± 16.23 | 0.806 ± 0.057 | 0.896 ± 0.147 | 1.131 ± 0.134 | – | – |
| COc1ncc(C2CC2)c2c(S(=O)(=O)N3CCCNC[C@H]3C)cccc12 [Compound R-YK1600-2, (R)-4-cyclopropyl-1-methoxy-5-((2-methyl-1,4-diazacycloheptan-1-yl)sulfonyl)isoquinoline] | 13.59 ± 2.67 | 241.55 ± 0.12 | 245.98 ± 11.41 | 249.23 ± 0.75 | 0.982 ± 0.096 | 1.037 ± 0.062 | 1.139 ± 0.263 | – | – |
| COc1nccc2c(S(=O)(=O)N3CCCNC[C@H]3CCC(C)C)cccc12 [Compound R-YK1612, (R)-5-((2-isopentyl-1,4-diazacycloheptan-1-yl)sulfonyl)-1-methoxyisoquinoline] | 13.05 ± 1.96 | 269.40 ± 8.89 | 269.35 ± 8.69 | 257.44 ± 4.48 | 0.960 ± 0.134 | 1.021 ± 0.006 | 1.114 ± 0.006 | – | – |
| COc1ncc(F)c2c(S(=O)(=O)N3CCCNC[C@H]3C)cccc12 [Compound R-YK1605, (R)-4-fluoro-1-methoxy-5-((2-methyl-1,4-diazacycloheptan-1-yl)sulfonyl)isoquinoline] | 12.95 ± 2.04 | 280.07 ± 7.00 | 274.72 ± 32.60 | 246.51 ± 1.44 | 0.950 ± 0.134 | 1.023 ± 0.006 | 1.122 ± 0.006 | – | – |
| O=S(=O)(c1cccc2cnccc12)N1CCCNCC1 [Fasudil hydrochloride, reference compound] | 10.25 ± 3.24 | 259.07 ± 40.07 | 208.85 ± 37.07 | 184.93 ± 1.09 | 1.131 ± 0.045 | 1.356 ± 0.045 | 1.450 ± 0.000 | promoted the expression of prostacyclin | inhibited the expression |
| CCc1cnc(O)c2cccc(S(=O)(=O)N3CCCNC[C@H]3C)c12 [Compound R-YK1607, (R)-4-ethyl-5-((2-methyl-1,4-diazacycloheptan-1-yl)sulfonyl)isoquinolin-1-ol] | 12.12 ± 2.06 | 249.20 ± 2.28 | 257.34 ± 7.96 | 241.68 ± 3.34 | 0.898 ± 0.006 | 0.924 ± 0.032 | 1.010 ± 0.006 | – | – |
| C[C@@H]1CNCCCN1S(=O)(=O)c1cccc2c(O)ncc(Cl)c12 [Compound R-YK1606, (R)-4-chloro-5-((2-methyl-1,4-diazacycloheptan-1-yl)sulfonyl)isoquinolin-1-ol] | 12.69 ± 2.01 | 292.24 ± 2.59 | 278.32 ± 46.42 | 258.58 ± 7.57 | 1.131 ± 0.019 | 1.009 ± 0.102 | 1.158 ± 0.223 | – | – |
| CC[C@@H]1CNCCCN1S(=O)(=O)c1cccc2c(OC)nccc12 [Compound R-YK1610, (R)-5-((2-ethyl-1,4-diazacycloheptan-1-yl)sulfonyl)-1-methoxyisoquinoline] | 12.83 ± 2.05 | 275.40 ± 9.89 | 267.35 ± 10.69 | 253.44 ± 12.48 | 0.997 ± 0.057 | 1.068 ± 0.032 | 1.121 ± 0.006 | – | – |
